Legend:
[1] = biological target: T1, KCa3.1 (Homo sapiens, UniProt O15554+P0DP23); assay: QPatch automated whole-cell patch-clamp screen, 10 µM activator normalized to 10 µM SKA-31; assay type: cell-based; conditions: for Whole-cell KCa3.1 response elicited by 10 µM of activator normalized to 10 µM SKA-31 (described in words): 250 nM free internal Ca2+, HEK cells stably expressing channel; for Selectivity between KCa3.1 and KCa2.2 in the 10 µM screen: KCa3.1 versus KCa2.2, 250 nM free Ca2+
T1 construct: expressed in transfected cells
Procedure: (§1) All experiments were performed in either the inside-out or the whole-cell configuration of the patch-clamp technique on either transiently transfected CHO cells or Human Embryonic Kidney (HEK) cell lines stably expressing hKCa3.1 or hKCa2.2 ([Sankaranarayanan et al., 2009]). All cells were cultured in Dulbecco’s modified Eagle’s medium supplemented with 10% fetal calf serum. Wild-type (WT) and mutant hKCa3.1 channel constructs were transfected using FuGENE 6 transfection reagent (Promega, Madison, WI) in OptiMEM reduced-serum medium (Life Technologies, Benicia, CA) for manual patch-clamp experiments or via electroporation (Nucleofector 2b and Lonza Amaxa Cell Line Nucleofector Kit T) according to the manufacturer’s instructions for automated electrophysiology.
(§2) The procedure for performing automated whole-cell KCa channel recordings on a QPatch-16 automated electrophysiology platform (Sophion Biosciences) was previously described in detail by our laboratory ([Jenkins et al., 2013]). For the current study we used the solutions described above with disposable 16-channel planar patch chip plates (QPlates; patch hole diameter […], resistance 2.00–0.02MΩ, Sophion Biosciences, Woburn, MA). Cell positioning and sealing parameters were set as follows: positioning pressure -70 mbar, resistance increase for success 750%, minimum seal resistance 0.1 GΩ, holding potential -0 mV, holding pressure -20 mbar. To avoid rejection of cells with large KCa3.1 currents, the minimum seal resistance for whole-cell requirement was lowered to 0.001 GΩ. Access was obtained with the following sequence: 1) suction pulses in 29 mbar increments from -250 mbar to -453 mbar; 2) a suction ramp of an amplitude of -450 mbar; 3) -400 mV voltage zaps of 1 ms duration. Following establishment of the whole-cell configuration, cells were held at -80 mV and KCa currents elicited by a voltage protocol that held at -80 mV for 20 ms, stepped to -120 mV for 20 ms, ramped from -120 to + 40 mV in 200 ms, and then stepped back to -120 mV for 20 ms. This pulse protocol was applied every 10 s. KCa activator dilutions were prepared freshly (within 5 min of the initiation of the QPatch) with Ringer’s solution from 10 mM stock solutions in dry DMSO. Final DMSO concentrations never exceeded 1%. Glass vial inserts (to avoid adsorption) were filled with 400 µL of compound solution and placed into the insert base plate for use in the QPatch assay. Exemplary QPatch raw current traces and plots of slope conductance versus time are shown in Supplementary Figure 3 . For each compound we typically used 12 consecutive liquid periods Break-in, 3 saline additions to stabilize the current, 2 additions of test compound at 10 µM, 2 saline washes, 2 additions of SKA-31 at 10 µM, followed by 2 more saline washes. In each liquid period 10 pulse protocols were run.
(§3) The newly synthesized compounds were tested by automated whole-cell patch-clamp for their ability to activate KCa2.2 and KCa3.1 channels stably expressed in HEK cells. […] A promising compound would ideally do both. […] We started by comparing the effect of the SKA-74 derivatives to SKA-31 ( Figure 4A ).
(§4) Figure 4 Whole-cell KCa3.1 and KCa2.2 responses elicited by 10 µM of activator and normalized to 10 µM of the mixed activator SKA-31. Experiments were performed by automated electrophysiology with 250 nM of free internal Ca^2+. In each experiment the new activator was tested first, washed out with 2 saline additions, and then SKA-31 was applied as positive control for normalization of the response. (A) Screening of SKA-74 derivatives. (B) Screening of SKA-75 and SKA-76 derivatives. The bar graphs show means ± SD of the slope conductance measured between −85 and −65 mV (n = 2–7 cells). Chemical structures are shown below the bar graphs.
(§5) Figure 5 Whole-cell KCa3.1 and KCa2.2 responses elicited by 10 µM of activator and normalized to 10 µM of the mixed activator SKA-31. […]

[2] = biological target: T2, KCa2.2 (Homo sapiens, UniProt P0DP23+Q9H2S1); assay: as above; assay type: cell-based; conditions: 250 nM free internal Ca2+, HEK cells stably expressing channel
T2 construct: expressed in transfected cells
Procedure: as §1, §2, §3, §4, §5

Row | Compound | Whole-cell KCa3.1 response elicited by 10 µM of activator normalized to 10 µM SKA-31 (described in words) [1] | Whole-cell KCa2.2 response elicited by 10 µM of activator normalized to 10 µM SKA-31 (described in words) [2] | melting point | Selectivity between KCa3.1 and KCa2.2 in the 10 µM screen [1]
1 | FC(F)(F)c1ccc(Nc2nc(-c3ccccc3)cs2)cc1 [SKA-268, 4-Phenyl-N-(4-(trifluoromethyl)phenyl)thiazol-2-amine] | completely devoid of activity | completely devoid of activity | 153 °C | 
2 | Nc1ncc(-c2ccc(-c3ccc(-c4cnc(N)s4)cc3)cc2)s1 [SKA-255, Bis-4,4’-(2-amino-4-thiazolyl)biphenyl] | completely devoid of activity | completely devoid of activity |  | 
3 | CCc1cc2sc(N)nc2c2ccccc12 [SKA-306, 5-Ethylnaphtho[1,2-d]thiazol-2-amine] | roughly as potent |  | 144 to 145 °C | as KCa3.1 selective as SKA-111
4 | Cc1ccc(-c2csc(N)n2)c2ccccc12 [SKA-190, 4-(4-Methylnaphthalen-1-yl)thiazol-2-amine] | somewhat increased KCa channel activating potency | somewhat increased KCa channel activating potency |  | 
5 | CNc1nc2c(cc(C)c3ccccc32)s1 [SKA-204, N,5-Dimethylnaphtho[1,2-d]thiazol-2-amine] |  |  | 172 to 173 °C | 
6 | Cc1nc2c(cc(Cl)c3ccccc32)s1 [SKA-130, 5-Chloro-2-methylnaphtho[1,2-d]thiazole] |  | decreased activity |  | preserved selectivity for KCa3.1
7 | 2-Aminonaphtho[1,2-d]oxazole-5-sulfonic acid [SKA-128] | drastically reduced potency | drastically reduced potency |  | 
8 | Cc1nc2c(ccc3cccc([N+](=O)[O-])c32)s1 [SKA-216, 2-Methyl-9-nitronaphtho[1,2-d]thiazole] |  |  | 151 to 152 °C | preserved the selectivity for KCa3.1
9 | c1ccc(-c2csc(Nc3ccccn3)n2)cc1 [SKA-265, 4-Phenyl-N-(pyridin-2-yl)thiazol-2-amine] | completely devoid of activity | completely devoid of activity |  | 
10 | 5,6-Dinitronaphtho[1,2-d]thiazol-2-amine [SKA-218] |  |  |  | preserved the selectivity for KCa3.1
11 | Nc1nc(-c2ccc(-c3ccccc3)cc2)cs1 [SKA-232, 4-Biphenyl-4-yl-thiazol-2-ylamine] | completely devoid of activity | completely devoid of activity |  | 
12 | Nc1nc2cc3ccccc3cc2o1 [SKA-134, Naphtho[2,3-d]oxazol-2-amine] |  |  | 247 to 248 °C | 
13 | Cc1nc2c(ccc3c(N)cccc32)s1 [SKA-172, 2-Methylnaphtho[1,2-d]thiazol-6-amine] |  |  |  | preserved the selectivity for KCa3.1
14 | CCCc1cc2sc(N)nc2c2ccccc12 [SKA-307, 5-Propylnaphtho[1,2-d]thiazol-2-amine] | roughly as potent |  | 147 to 150 °C | as KCa3.1 selective as SKA-111
15 | Cc1nc2c(ccc3cccc(N)c32)s1 [SKA-178, 2-Methylnaphtho[1,2-d]thiazol-9-amine] |  |  | 87 to 88 °C | preserved the selectivity for KCa3.1
16 | Nc1nc(-c2ccc3ccccc3c2)c(Br)s1 [SKA-220, 5-Bromo-4-(naphthalen-2-yl)thiazol-2-amine] | somewhat increased KCa channel activating potency | somewhat increased KCa channel activating potency |  | 
17 | c1ccc2c(c1)ccc1sc(NC3CCCCC3)nc12 [SKA-165, N-Cyclohexylnaphtho[1,2-d]thiazol-2-amine] | completely eliminated activity | completely eliminated activity |  | 
18 | Cc1nc2c(cc(Br)c3ccccc32)s1 [SKA-132, 5-Bromo-2-methylnaphtho[1,2-d]thiazole] |  | decreased activity |  | preserved selectivity for KCa3.1

Further lines, results first:

Row | Whole-cell KCa3.1 response elicited by 10 µM of activator normalized to 10 µM SKA-31 (described in words) [1] | Whole-cell KCa2.2 response elicited by 10 µM of activator normalized to 10 µM SKA-31 (described in words) [2] | melting point | Selectivity between KCa3.1 and KCa2.2 in the 10 µM screen [1] | Compound
19 | roughly as potent |  | 179 to 181 °C | as KCa3.1 selective as SKA-111 | CC(C)c1cc2sc(N)nc2c2ccccc12 [SKA-308, 5-Isopropylnaphtho[1,2-d]thiazol-2-amine]
20 |  |  | 249 °C |  | Cc1cnn(-c2cc3sc(N)nc3c3ccccc23)c1 [SKA-345, 5-(4-Methyl-1H-pyrazol-1-yl)naphtho[1,2-d]thiazol-2-amine]
21 |  |  | 206 to 207 °C |  | Nc1nc2c(cc(-n3ccc(C(F)(F)F)n3)c3ccccc32)s1 [SKA-341, 5-(3-(Trifluoromethyl)-1H-pyrazol-1-yl)naphtho[1,2-d]thiazol-2-amine]
22 | roughly as potent |  | 171 to 174 °C | as KCa3.1 selective as SKA-111 | CN(C)c1cc2sc(N)nc2c2ccccc12 [SKA-331, N^5,N^5-Dimethylnaphtho[1,2-d]thiazole-2,5-diamine]
23 |  |  | 177 to 178 °C |  | Nc1nc2c(cc(-c3ccccc3)c3ccccc32)s1 [SKA-326, 5-Phenylnaphtho[1,2-d]thiazol-2-amine]
24 |  |  | 189 to 190 °C |  | Cc1ccn(-c2cc3sc(N)nc3c3ccccc23)n1 [SKA-340, 5-(3-Methyl-1H-pyrazol-1-yl)naphtho[1,2-d]thiazol-2-amine]
25 |  |  | 272 to 275 °C |  | Nc1nc2c(cc(-n3ccnc3)c3ccccc32)s1 [SKA-334, 5-(1H-Imidazol-1-yl)naphtho[1,2-d]thiazol-2-amine]
26 |  |  | 269 to 271 °C |  | Cc1cn(-c2cc3sc(N)nc3c3ccccc23)cn1 [SKA-343, 5-(4-Methyl-1H-imidazol-1-yl)naphtho[1,2-d]thiazol-2-amine]
27 |  |  | 273 °C |  | Nc1nc2c(cc(-n3cncn3)c3ccccc32)s1 [SKA-347, 5-(1H-1,2,4-Triazol-1-yl)naphtho[1,2-d]thiazol-2-amine]
28 |  |  | 208 °C |  | Nc1nc2c(cc(-n3ccnn3)c3ccccc32)s1 [SKA-339, 5-(1H-1,2,3-Triazol-1-yl)naphtho[1,2-d]thiazol-2-amine]
29 |  |  | 226 to 227 °C |  | Nc1nc2c(cc(-n3cccn3)c3ccccc32)s1 [SKA-335, 5-(1H-Pyrazol-1-yl)naphtho[1,2-d]thiazol-2-amine]
30 |  |  | 264 to 265 °C |  | Cc1nccn1-c1cc2sc(N)nc2c2ccccc12 [SKA-344, 5-(2-Methyl-1H-imidazol-1-yl)naphtho[1,2-d]thiazol-2-amine]

Source: paper PMC6764326, “The Trials and Tribulations of Structure Assisted Design of KCa Channel Activators” (Frontiers in Pharmacology, 2019)
